Experimental data published in US8334258B2, “Method for induction and enhancement of apoptosis in tumor cells” (Georg-August-Universität Göttingen Stiftung Öffentlichen …, priority 2006, dated 2012).
Square brackets hold non-standard residues; d marks the D form. pGlu = O=C1CC[C@@H](C(=O)O)N1

What was measured:
[1] = tested on: MCF-7 breast cancer cell line; assay: Apoptosis assay, flow cytometric analysis of DNA degradation (propidium iodide); format: cell-based, human; settings: MCF-7, FIG. 1 (B)
cancer cells = settings: Gründker et al. 2004; cited from earlier work

For “[D-Lys^6]GnRH-II ([pGlu]HWSH[dK]WYPG-NH2; SMILES NCCCC[C@@H](NC(=O)[C@H](Cc1c[nH]cn1)NC(=O)[C@H](CO)NC(=O)[C@H](Cc1c[nH]c2ccccc12)NC(=O)[C@H](Cc1c[nH]cn1)NC(=O)[C@@H]1CCC(=O)N1)C(=O)N[C@@H](Cc1c[nH]c2ccccc12)C(=O)N[C@@H](Cc1ccc(O)cc1)C(=O)N1CCC[C@H]1C(=O)NCC(N)=O) [GnRH-II agonist]”, which “induction of apoptotic cell death by GnRH-II agonist” value [1] is on record?
Its value is “did not induce apoptotic cell death”.

What about the “antiproliferative effects after GnRH-I receptor knock-out” value (cancer cells) of the same substance?
Its value is “still existing”.
